From PMC11631053, “A receptor-based assay to study the sweet and bitter tastes of sweeteners and binary sweet blends: the SWEET project” (Chemical Senses, 2024)
Where “and” joins values, the source holds several entries; their conditions need not be identical. Equal entries are not always repeated. Where two headings read alike, the source gives them in different places.

Columns and labels:
TAS2R10 = target: T1, TAS2R10 (Homo sapiens, UniProt Q9NYW0); assay: Calcium mobilization assay, HEK293T-Gα16gust44 cells expressing TAS2R10; conditions: for Response of TAS2R10: maximal concentration tested: sucralose 100 mM, neotame 30 µM, Ace-K 300 mM, RebA 4 mM, RebM 4 mM, mogroside V 5 mM, erythritol 200 mM, D-allulose 500 mM, thaumatin 100 mM
T1 sequence (Q9NYW0 1-307): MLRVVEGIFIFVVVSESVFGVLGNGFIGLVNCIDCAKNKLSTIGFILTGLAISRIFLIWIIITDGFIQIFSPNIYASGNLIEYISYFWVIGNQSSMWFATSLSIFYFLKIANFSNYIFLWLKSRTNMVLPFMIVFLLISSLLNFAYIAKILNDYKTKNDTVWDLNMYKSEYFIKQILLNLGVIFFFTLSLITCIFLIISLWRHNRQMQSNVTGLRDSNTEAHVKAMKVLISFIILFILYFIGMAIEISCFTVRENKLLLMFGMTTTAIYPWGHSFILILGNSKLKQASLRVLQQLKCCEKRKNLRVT
Procedure: (§1) Different concentration ranges were tested depending on the injected sweet compound. […] All of the concentration-receptor combinations were measured in triplicate, and each experiment was repeated at least 3 times. The Ca^2+ change was expressed as a fractional change in fluorescent light intensity: ΔF/F = (F − F0)/F0, where F was the fluorescent light intensity at each point, and F0 was the value of fluorescent light emitted prior to stimulus application. To calculate dose–response relationships, the changes in fluorescence upon stimulus application were averaged, mock-subtracted and baseline-corrected. The resulting obtained dose–response data were adjusted by using a 4-parameter logistic equation.

TAS1R2/TAS1R3 = target: T2, TAS1R2/TAS1R3 (Homo sapiens, UniProt Q7RTX0+Q8TE23); assay: Calcium mobilization assay, HEK293T-Gα16gust44 cells expressing the sweet taste receptor
T2 sequence (Q8TE23 20-839): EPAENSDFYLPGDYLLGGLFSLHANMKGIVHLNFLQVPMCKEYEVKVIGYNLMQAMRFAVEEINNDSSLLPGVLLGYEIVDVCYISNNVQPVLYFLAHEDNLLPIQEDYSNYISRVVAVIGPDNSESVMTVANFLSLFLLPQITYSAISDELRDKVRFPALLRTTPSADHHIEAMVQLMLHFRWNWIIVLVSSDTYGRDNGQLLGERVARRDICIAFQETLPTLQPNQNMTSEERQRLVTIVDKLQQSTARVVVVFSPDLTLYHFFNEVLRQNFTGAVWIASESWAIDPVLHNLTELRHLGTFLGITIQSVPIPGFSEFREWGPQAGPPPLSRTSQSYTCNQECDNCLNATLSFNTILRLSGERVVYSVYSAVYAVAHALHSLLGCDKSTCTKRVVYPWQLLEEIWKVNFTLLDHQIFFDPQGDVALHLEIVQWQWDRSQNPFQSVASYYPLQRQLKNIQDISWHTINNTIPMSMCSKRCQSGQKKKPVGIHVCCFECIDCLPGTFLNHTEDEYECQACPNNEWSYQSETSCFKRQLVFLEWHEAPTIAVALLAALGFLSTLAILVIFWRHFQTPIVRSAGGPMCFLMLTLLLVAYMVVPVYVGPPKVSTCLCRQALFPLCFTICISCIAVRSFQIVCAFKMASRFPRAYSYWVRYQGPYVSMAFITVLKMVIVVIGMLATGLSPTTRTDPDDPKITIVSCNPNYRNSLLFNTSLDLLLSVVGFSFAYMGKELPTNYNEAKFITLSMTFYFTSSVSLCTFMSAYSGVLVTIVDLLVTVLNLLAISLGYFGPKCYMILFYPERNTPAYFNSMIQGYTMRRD
T2 sequence (Q7RTX0 21-852): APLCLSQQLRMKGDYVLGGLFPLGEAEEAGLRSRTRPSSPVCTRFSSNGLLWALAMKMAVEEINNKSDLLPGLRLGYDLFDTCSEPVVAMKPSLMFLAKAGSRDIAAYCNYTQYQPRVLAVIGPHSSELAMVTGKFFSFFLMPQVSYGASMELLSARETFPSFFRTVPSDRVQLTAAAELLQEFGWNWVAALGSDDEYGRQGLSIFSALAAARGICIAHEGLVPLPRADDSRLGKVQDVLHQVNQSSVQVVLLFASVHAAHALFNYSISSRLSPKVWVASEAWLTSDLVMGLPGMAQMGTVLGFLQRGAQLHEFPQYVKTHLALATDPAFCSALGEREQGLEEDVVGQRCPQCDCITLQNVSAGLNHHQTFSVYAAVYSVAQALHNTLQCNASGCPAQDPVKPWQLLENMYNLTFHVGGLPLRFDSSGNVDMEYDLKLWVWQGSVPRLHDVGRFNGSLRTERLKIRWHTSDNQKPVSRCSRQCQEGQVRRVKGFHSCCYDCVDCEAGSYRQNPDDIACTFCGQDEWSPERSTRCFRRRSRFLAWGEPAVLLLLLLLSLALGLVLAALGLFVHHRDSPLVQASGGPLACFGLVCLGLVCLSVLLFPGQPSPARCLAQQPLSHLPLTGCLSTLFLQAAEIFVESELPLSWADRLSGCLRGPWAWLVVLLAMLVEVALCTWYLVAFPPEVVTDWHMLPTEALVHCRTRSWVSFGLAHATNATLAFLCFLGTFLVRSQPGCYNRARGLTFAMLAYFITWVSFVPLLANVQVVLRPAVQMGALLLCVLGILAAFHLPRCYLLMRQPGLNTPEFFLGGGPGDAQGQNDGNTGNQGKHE
Procedure: as §1

TAS2R43 = target: T3, TAS2R43 (Homo sapiens, UniProt P59537); assay: Calcium mobilization assay, HEK293T-Gα16gust44 cells expressing TAS2R43; conditions: for Response of TAS2R43: maximal concentration tested: sucralose 100 mM, neotame 30 µM, Ace-K 300 mM, RebA 4 mM, RebM 4 mM, mogroside V 5 mM, erythritol 200 mM, D-allulose 500 mM, thaumatin 100 mM
T3 sequence (P59537 1-309): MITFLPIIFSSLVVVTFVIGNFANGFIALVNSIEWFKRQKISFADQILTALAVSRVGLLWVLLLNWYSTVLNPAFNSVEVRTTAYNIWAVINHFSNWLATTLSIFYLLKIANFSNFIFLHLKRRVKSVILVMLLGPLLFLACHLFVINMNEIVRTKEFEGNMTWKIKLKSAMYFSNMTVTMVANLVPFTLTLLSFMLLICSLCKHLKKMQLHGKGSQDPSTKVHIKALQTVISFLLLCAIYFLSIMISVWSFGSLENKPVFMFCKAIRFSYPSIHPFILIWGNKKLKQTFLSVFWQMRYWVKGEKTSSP
Procedure: as §1

TAS2R4 = target: T4, TAS2R4 (Homo sapiens, UniProt Q9NYW5); assay: Calcium mobilization assay, HEK293T-Gα16gust44 cells expressing TAS2R4; conditions: maximal concentration tested: sucralose 100 mM, neotame 30 µM, Ace-K 300 mM, RebA 4 mM, RebM 4 mM, mogroside V 5 mM, erythritol 200 mM, D-allulose 500 mM, thaumatin 100 mM
T4 sequence (Q9NYW5 1-299): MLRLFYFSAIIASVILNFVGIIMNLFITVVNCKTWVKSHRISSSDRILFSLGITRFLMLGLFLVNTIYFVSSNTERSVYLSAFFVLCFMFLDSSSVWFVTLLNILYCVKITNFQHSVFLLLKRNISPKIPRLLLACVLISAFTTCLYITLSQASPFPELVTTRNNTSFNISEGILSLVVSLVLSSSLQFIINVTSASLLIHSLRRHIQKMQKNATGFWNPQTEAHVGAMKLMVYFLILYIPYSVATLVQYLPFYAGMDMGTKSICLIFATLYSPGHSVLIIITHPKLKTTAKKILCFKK
Procedure: Different concentration ranges were tested depending on the injected sweet compound. […] All of the concentration-receptor combinations were measured in triplicate, and each experiment was repeated at least 3 times. The Ca^2+ change was expressed as a fractional change in fluorescent light intensity: ΔF/F = (F − F0)/F0, where F was the fluorescent light intensity at each point, and F0 was the value of fluorescent light emitted prior to stimulus application. To calculate dose–response relationships, the changes in fluorescence upon stimulus application were averaged, mock-subtracted and baseline-corrected. The resulting obtained dose–response data were adjusted by using a 4-parameter logistic equation. The half-maximal effective concentration (EC50) was calculated by using SigmaPlot software (Systat Software, San Jose, CA, USA) as described in supplemental Supplementary Figs. S1, S2, and S3.

[1] = maximal signal amplitude, sweet compound alone
[2] = mogroside V in the presence of thaumatin 0 µM
[3] = read-out: EC50 value, sweet compound alone
[4] = neotame in the presence of D-allulose 0 mM
[5] = RebM in the presence of mogroside V 0 µM

Row | Molecule | Response of TAS2R10 (TAS2R10) | Response of TAS2R43 (TAS2R43) | Response of TAS2R4 (TAS2R4) | Max ΔF/F0 (TAS1R2/TAS1R3; [1]) | EC50 (TAS1R2/TAS1R3; [3]) | further results
1 | CC1=CC(=O)NS(=O)(=O)O1 [Ace-K, acesulfame-K] | − | §^b | − |  |  | EC50 (TAS1R2/TAS1R3): 410 ± 94 µM
2 | O=C(CO)[C@H](O)[C@H](O)[C@H](O)CO [D-allulose] | − | + | − | 0.50 ± 0.12 |  | activation of the sweet taste receptor by the compound alone (TAS1R2/TAS1R3; 3 to 30 mM): did not activate the sweet taste receptor; concentrations at which TAS2R43 was activated (TAS2R43): > 300 mM
3 | OC[C@@H](O)[C@@H](O)CO [Erythritol, erythritol] | − | − | − | 0.06 ± 0.01 |  | EC50 (TAS1R2/TAS1R3): 56000 ± 10000 µM
4 | C[C@H](CC[C@@H](O[C@@H]1O[C@H](CO[C@@H]2O[C@H](CO)[C@@H](O)[C@H](O)[C@H]2O)[C@@H](O)[C@H](O)[C@H]1O[C@@H]1O[C@H](CO)[C@@H](O)[C@H](O)[C@H]1O)C(C)(C)O)[C@H]1CC[C@@]2(C)[C@@H]3CC=C4[C@@H](CC[C@H](O[C@@H]5O[C@H](CO[C@@H]6O[C@H](CO)[C@@H](O)[C@H](O)[C@H]6O)[C@@H](O)[C@H](O)[C@H]5O)C4(C)C)[C@]3(C)[C@H](O)C[C@]12C [Mogroside V, mogroside V] | − | − | − | 0.14 ± 0.01 | 23 ± 2 µM | concentration of saturation of the sweet taste receptor (TAS1R2/TAS1R3): ~500 µM; decrease in the EC50 values (TAS1R2/TAS1R3; in the presence of thaumatin 0.3 to 10 µM): 3 fold; decrease in the EC50 value (TAS1R2/TAS1R3; mogroside V in the presence of 10 µM thaumatin): 4 fold; EC50 (TAS1R2/TAS1R3; [2]): 29 ± 4 µM; Max ΔF/F0 (TAS1R2/TAS1R3; [2]): 0.14 ± 0.01; Max ΔF/F0 (TAS1R2/TAS1R3; mogroside V in the presence of thaumatin 0.03 µM): 0.19 ± 0.01; Max ΔF/F0 (TAS1R2/TAS1R3; mogroside V in the presence of thaumatin 1 µM): 0.18 ± 0.04; Max ΔF/F0 (TAS1R2/TAS1R3; mogroside V in the presence of thaumatin 3 µM): 0.18 ± 0.01; Max ΔF/F0 (TAS1R2/TAS1R3; mogroside V in the presence of thaumatin 10 µM): 0.17 ± 0.01
5 | COC(=O)[C@H](Cc1ccccc1)NC(=O)[C@H](CC(=O)O)NCCC(C)(C)C [Neotame] | − | − | − | 0.16 ± 0.01 | 2.26 ± 0.23 µM | EC50 (TAS1R2/TAS1R3; [4]): 2.37 ± 0.34 µM; Max ΔF/F0 (TAS1R2/TAS1R3; [4]): 0.16 ± 0.01; Max ΔF/F0 (TAS1R2/TAS1R3; neotame in the presence of D-allulose 3 mM): 0.17 ± 0.01; Max ΔF/F0 (TAS1R2/TAS1R3; neotame in the presence of D-allulose 10 mM): 0.21 ± 0.01; Max ΔF/F0 (TAS1R2/TAS1R3; neotame in the presence of D-allulose 30 mM): 0.17 ± 0.00; increase in sweetness potency (TAS1R2/TAS1R3; neotame with addition of D-allulose (3 to 30 mM), leftward shift of dose–response curves): approximately 2.5 fold
6 | C=C1C[C@@]23CC[C@H]4[C@@](C)(CCC[C@@]4(C)C(=O)O[C@@H]4O[C@H](CO)[C@@H](O)[C@H](O[C@@H]5O[C@H](CO)[C@@H](O)[C@H](O)[C@H]5O)[C@H]4O[C@@H]4O[C@H](CO)[C@@H](O)[C@H](O)[C@H]4O)[C@@H]2CC[C@]1(O[C@@H]1O[C@H](CO)[C@@H](O)[C@H](O[C@@H]2O[C@H](CO)[C@@H](O)[C@H](O)[C@H]2O)[C@H]1O[C@@H]1O[C@H](CO)[C@@H](O)[C@H](O)[C@H]1O)C3 [RebM, Rebaudioside M] | − | − | − | 0.16 ± 0.01 | 34 ± 2 µM | EC50 (TAS1R2/TAS1R3; [5]): 36 ± 2 µM; Max ΔF/F0 (TAS1R2/TAS1R3; [5]): 0.17 ± 0.01; Max ΔF/F0 (TAS1R2/TAS1R3; RebM in the presence of mogroside V 0.03 µM): 0.16 ± 0.01; Max ΔF/F0 (TAS1R2/TAS1R3; RebM in the presence of mogroside V 1 µM): 0.18 ± 0.01; Max ΔF/F0 (TAS1R2/TAS1R3; RebM in the presence of mogroside V 3 µM): 0.17 ± 0.01; Max ΔF/F0 (TAS1R2/TAS1R3; RebM in the presence of mogroside V 5 µM): 0.12 ± 0.01; Max ΔF/F0 (TAS1R2/TAS1R3; RebM in the presence of mogroside V 10 µM): 0.12 ± 0.01
7 | OC[C@H]1O[C@H](O[C@]2(CCl)O[C@H](CCl)[C@@H](O)[C@@H]2O)[C@H](O)[C@@H](O)[C@H]1Cl [Sucralose, sucralose] | #^a | − | − | 0.13 ± 0.01 | 78 ± 11 µM | EC50 (TAS2R10; TAS2R10 EC50): 17000 µM and ≥ 3000 µM; concentration at which maximal signal amplitude is reached (TAS1R2/TAS1R3): below 1 mM; Max ΔF/F0 (TAS1R2/TAS1R3; sucralose in the presence of Ace-K 0 µM): 0.13 ± 0.01; Max ΔF/F0 (TAS1R2/TAS1R3; sucralose in the presence of Ace-K 10 µM): 0.15 ± 0.01; Max ΔF/F0 (TAS1R2/TAS1R3; sucralose in the presence of Ace-K 30 µM): 0.12 ± 0.01; Max ΔF/F0 (TAS1R2/TAS1R3; sucralose in the presence of Ace-K 100 µM): 0.14 ± 0.01
8 | thaumatin | − | − | − | 0.12 ± 0.01 |  | activation of the sweet taste receptor by the compound alone (TAS1R2/TAS1R3; concentrations less than 3 µM): unable to activate the sweet taste receptor on its own
